Key:
[1] = target: T1, Cytochrome P450 1A1 (Homo sapiens, UniProt P04798); test: Inhibition of recombinant CYP1A1 (unknown origin) assessed as decrease in EROD activity using 7-ethoxyresorufin as substrate incubated for 15 mins by resorufin dye based spectrofluorimetry; format: ADME
T1 sequence (P04798 whole entry): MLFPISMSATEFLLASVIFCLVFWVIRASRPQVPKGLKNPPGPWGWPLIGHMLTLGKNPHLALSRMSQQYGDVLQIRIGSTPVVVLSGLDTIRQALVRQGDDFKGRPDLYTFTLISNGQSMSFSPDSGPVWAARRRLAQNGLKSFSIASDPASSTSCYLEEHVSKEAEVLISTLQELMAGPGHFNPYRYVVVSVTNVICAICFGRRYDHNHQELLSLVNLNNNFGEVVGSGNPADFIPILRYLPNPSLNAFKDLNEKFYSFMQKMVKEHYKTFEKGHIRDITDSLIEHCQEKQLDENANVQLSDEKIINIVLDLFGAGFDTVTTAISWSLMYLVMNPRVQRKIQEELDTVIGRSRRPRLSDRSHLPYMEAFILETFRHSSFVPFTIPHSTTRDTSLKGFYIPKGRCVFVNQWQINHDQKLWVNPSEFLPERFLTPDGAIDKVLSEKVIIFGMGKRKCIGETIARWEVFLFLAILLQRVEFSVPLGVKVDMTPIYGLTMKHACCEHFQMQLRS

[2] = tested on: MDA-MB-468; test: Anticancer activity against human MDA-MB-468 cells assessed as inhibition of cell growth incubated for 48 hrs by SRB assay; format: functional; settings: for CC50: read-out: LC50 (the source's name)
[3] = tested on: MDA-MB-468; test: Anticancer activity against human MDA-MB-468 cells assessed as cell growth at 0.1 uM incubated for 48 hrs by SRB assay; format: functional; settings: read-out: Activity
[4] = tested on: MDA-MB-435; test: Anticancer activity against human MDA-MB-435 cells assessed as inhibition of cell growth incubated for 48 hrs by SRB assay; format: functional
[5] = tested on: MDA-MB-468; test: Anticancer activity against human MDA-MB-468 cells assessed as cell growth at 10 uM incubated for 48 hrs by SRB assay; format: functional; settings: read-out: Activity
[6] = tested on: MCF7; test: Anticancer activity against human MCF7 cells assessed as inhibition of cell growth incubated for 48 hrs by SRB assay; format: functional; settings: for CC50: read-out: LC50 (the source's name)
[7] = tested on: NCI-H226; test: Anticancer activity against human NCI-H226 cells assessed as cell growth at 10 uM incubated for 48 hrs by SRB assay; format: functional; settings: read-out: Activity
[8] = target: T2, CYP1A1 (Homo sapiens, UniProt P04798); test: Inhibition of recombinant CYP1A1 (unknown origin) assessed as residual enzyme activity using 7-ethoxyresorufin as substrate at 5 uM incubated for 15 mins by resorufin dye based spectrofluorimetry (reference value: 100%); format: ADME; settings: recombinant CYP1A1, probe 7-ethoxyresorufin, read-out: Activity
T2 sequence (P04798 whole entry): T1 sequence (P04798 whole entry)

[9] = target: T2, CYP1A1; test: Inhibition of recombinant CYP1A1 (unknown origin) assessed as residual enzyme activity using 7-ethoxyresorufin as substrate at 100 uM incubated for 15 mins by resorufin dye based spectrofluorimetry (reference value: 100%); format: ADME; settings: recombinant CYP1A1, probe 7-ethoxyresorufin, read-out: Activity
[10] = tested on: MDA-MB-435; test: Anticancer activity against human MDA-MB-435 cells assessed as cell growth at 1 uM incubated for 48 hrs by SRB assay; format: functional; settings: read-out: Activity
[11] = tested on: MCF7; test: Anticancer activity against human MCF7 cells assessed as cell growth at 1 uM incubated for 48 hrs by SRB assay; format: functional; settings: read-out: Activity
[12] = target: T2, CYP1A1; test: Inhibition of recombinant CYP1A1 (unknown origin) assessed as residual enzyme activity using 7-ethoxyresorufin as substrate at 1 uM incubated for 15 mins by resorufin dye based spectrofluorimetry (reference value: 100%); format: ADME; settings: recombinant CYP1A1, probe 7-ethoxyresorufin, read-out: Activity
[13] = tested on: NCI-H226; test: Anticancer activity against human NCI-H226 cells assessed as inhibition of cell growth incubated for 48 hrs by SRB assay; format: functional
[14] = target: T2, CYP1A1; test: Inhibition of recombinant CYP1A1 (unknown origin) assessed as residual enzyme activity using 7-ethoxyresorufin as substrate at 50 uM incubated for 15 mins by resorufin dye based spectrofluorimetry (reference value: 100%); format: ADME; settings: recombinant CYP1A1, probe 7-ethoxyresorufin, read-out: Activity
[15] = tested on: MCF7; test: Anticancer activity against human MCF7 cells assessed as cell growth at 10 uM incubated for 48 hrs by SRB assay; format: functional; settings: read-out: Activity
[16] = tested on: MDA-MB-435; test: Anticancer activity against human MDA-MB-435 cells assessed as cell growth at 0.1 uM incubated for 48 hrs by SRB assay; format: functional; settings: read-out: Activity
[17] = tested on: MDA-MB-435; test: Anticancer activity against human MDA-MB-435 cells assessed as cell growth at 100 uM incubated for 48 hrs by SRB assay; format: functional; settings: read-out: Activity
[18] = tested on: MDA-MB-435; test: Anticancer activity against human MDA-MB-435 cells assessed as cell growth at 10 uM incubated for 48 hrs by SRB assay; format: functional; settings: read-out: Activity
[19] = tested on: NCI-H226; test: Anticancer activity against human NCI-H226 cells assessed as cell growth at 0.1 uM incubated for 48 hrs by SRB assay; format: functional; settings: read-out: Activity
[20] = target: T2, CYP1A1; test: Inhibition of recombinant CYP1A1 (unknown origin) assessed as residual enzyme activity using 7-ethoxyresorufin as substrate at 0.1 uM incubated for 15 mins by resorufin dye based spectrofluorimetry (reference value: 100%); format: ADME; settings: recombinant CYP1A1, probe 7-ethoxyresorufin, read-out: Activity
[21] = tested on: MDA-MB-468; test: Anticancer activity against human MDA-MB-468 cells assessed as cell growth at 100 uM incubated for 48 hrs by SRB assay; format: functional; settings: read-out: Activity
[22] = tested on: MCF7; test: Anticancer activity against human MCF7 cells assessed as cell growth at 0.1 uM incubated for 48 hrs by SRB assay; format: functional; settings: read-out: Activity
[23] = tested on: MCF7; test: Anticancer activity against human MCF7 cells assessed as cell growth at 100 uM incubated for 48 hrs by SRB assay; format: functional; settings: read-out: Activity
[24] = tested on: NCI-H226; test: Anticancer activity against human NCI-H226 cells assessed as cell growth at 100 uM incubated for 48 hrs by SRB assay; format: functional; settings: read-out: Activity
[25] = tested on: NCI-H226; test: Anticancer activity against human NCI-H226 cells assessed as cell growth at 1 uM incubated for 48 hrs by SRB assay; format: functional; settings: read-out: Activity
[26] = target: T2, CYP1A1; test: Inhibition of recombinant CYP1A1 (unknown origin) assessed as residual enzyme activity using 7-ethoxyresorufin as substrate at 0.01 uM incubated for 15 mins by resorufin dye based spectrofluorimetry (reference value: 100%); format: ADME; settings: recombinant CYP1A1, probe 7-ethoxyresorufin, read-out: Activity
[27] = tested on: MDA-MB-468; test: Anticancer activity against human MDA-MB-468 cells assessed as cell growth at 1 uM incubated for 48 hrs by SRB assay; format: functional; settings: read-out: Activity
[28] = target: T2, CYP1A1; test: Inhibition of recombinant CYP1A1 (unknown origin) assessed as residual enzyme activity using 7-ethoxyresorufin as substrate at 10 uM incubated for 15 mins by resorufin dye based spectrofluorimetry (reference value: 100%); format: ADME; settings: recombinant CYP1A1, probe 7-ethoxyresorufin, read-out: Activity

SMILES	IC50 [1] [µM]	GI50 [2] [µM]	TGI [2] [µM]	CC50 [2] [µM]	growth at 0.1 µM [3] [%]	GI50 [4] [µM]	LC50 [4] [µM]	TGI [4] [µM]	growth at 10 µM [5] [%]	GI50 [6] [µM]	TGI [6] [µM]	CC50 [6] [µM]	growth at 10 µM [7] [%]	activity at 0.25 h, 100 µM [9] [%]	growth at 1 µM [10] [%]	growth at 1 µM [11] [%]	activity at 0.25 h, 1 µM [12] [%]	GI50 [13] [µM]	LC50 (concentration killing 50% of cells) [13] [µM]	TGI [13] [µM]	further results
Nc1cc(-c2cc3cc(F)ccc3[nH]2)ccc1F	0.3	36.5	84.7	> 100	100	< 0.1	> 100	> 100	50	69.5	> 100	> 100	63	17.5	21.5	63.9	39.8	62.3	> 100	> 100	activity at 0.25 h, 5 µM [8]: 22.4%; activity at 0.25 h, 50 µM [14]: 18.3%; growth at 10 µM [15]: 55%; growth at 0.1 µM [16]: 29.5%; growth at 100 µM [17]: 14.9%; growth at 10 µM [18]: 17.7%; growth at 0.1 µM [19]: 97.7%; activity at 0.25 h, 0.1 µM [20]: 60.9%; growth at 100 µM [21]: -14.4%; growth at 0.1 µM [22]: 68.2%; growth at 100 µM [23]: 44.5%; growth at 100 µM [24]: 30.2%; growth at 1 µM [25]: 83.2%; activity at 0.25 h, 0.01 µM [26]: 76.5%; growth at 1 µM [27]: 96.4%
Cc1cc(C)n(C(=O)CCn2nc(C)c(Cl)c2C)n1	10	> 100	> 100	> 100	100	> 100	> 100	> 100	97.7	54.8	> 100	> 100	71.4	35.1	100	78.7	52.9	> 100	> 100	> 100	activity at 0.25 h, 50 µM [14]: 36.4%; growth at 10 µM [15]: 74%; growth at 0.1 µM [16]: 100%; growth at 100 µM [17]: 84.9%; growth at 10 µM [18]: 100%; growth at 0.1 µM [19]: 80.4%; activity at 0.25 h, 0.1 µM [20]: 62.2%; growth at 100 µM [21]: 68.3%; growth at 0.1 µM [22]: 85.9%; growth at 100 µM [23]: 22.9%; growth at 100 µM [24]: 55.6%; growth at 1 µM [25]: 77.6%; activity at 0.25 h, 0.01 µM [26]: 79.9%; growth at 1 µM [27]: 100%; activity at 0.25 h, 10 µM [28]: 50.6%

From ChEMBL document CHEMBL5257023, “Identification of leads for antiproliferative activity on MDA-MB-435 human breast cancer cells through pharmacophore and CYP1A1-mediated metabolism” (Eur J Med Chem, 2016)
